Measurements published in patent publication US6673812B1, “Preventives/remedies for glaucoma” (Senju Pharmaceutical Co., Ltd., priority 1998, dated 2004).

Experiments:
[1] = system: extracted ciliary muscle of white rabbit; experiment: Effect on carbachol contraction of extracted ciliary muscle of white rabbit (Magnus bath); format: cell-based
Protocol: Male Japanese white rabbits (body weight about 2 kg) were euthanized by intravenous administration of an excess pentobarbital sodium. The eyeball was enucleated immediately thereafter and preserved in a Krebs solution (NaCl:112 mM, KC1:5.9 mM, CaCl2 2H2O:2.0 mM, MgCl2 6H2O:1.2 mM, NaH2PO4 2H2O:1.2 mM, NaHCO3:25 mM, Glucose:11.5 mM). The ciliary body separated from the eyeball was hung in a Magnus bath filled with the Krebs solution and equilibrated under a 20-30 mg resting tension. The changes in the tension of the preparation was measured with a transducer and recorded on a pen recorder via an amplifier. As the contraction drug, carbachol was used, and the inhibitory action on the dose dependent response of phasic contraction was studied. The test drug was (+)-trans-4-(1-aminoethyl)-1-(4-pyridylcarbamoyl)cyclohexane 2HCl 1H2O (Compound A), which was added to the Magnus bath 5 min before addition of carbachol.

Japanese white rabbits [2] = experiment: Effect on normal intraocular pressure of white rabbits; format: in vivo, rabbit; conditions: 20 μl eye drop, 0.1% or 0.03%
From the text: In this experiment, 0.1% eye drop and 0.03% eye drop containing Compound A (each prepared in Example 2 and Example 3), 0.03% eye drop containing Compound B (prepared in Example 4), 0.1% eye drop and 0.03% eye drop containing Compound C (each prepared in Example 5 and Example 6) and 0.03% eye drop containing Compound D (prepared in Example 7) were used.
Japanese white rabbits (body weight about 2 kg) purchased from Japan Laboratory Animals, INC. were used. These animals were bred in a breeding chamber set to temperature 23±3° C., humidity 55±10% and fed on limited amount of 100 g a day of a solid feed (Labo R Stock, Nihon-Nosan Kogyo K.K.). They were allowed free access to tap water. The rabbits were placed in a holding box for 5 hr a day for acclimation from 2 days prior to the test. […] After measurement of the initial value of the intraocular pressure, various eye drops (20 μl) were instilled into one eye, and a base, which was one of various eye drops except the test drug, was instilled into the other eye in the same manner and taken as the control eye.
The intraocular pressure was measured with time at 30, 60, 90, 120, 150 and 180 min after instillation and thereafter at one hour intervals until the intraocular pressure returned to the initial value, and the duration of the effect was examined.

Japanese white rabbits [3] = experiment: Effect on blood flow of normal optic disc of white rabbits; format: in vivo, rabbit; conditions: 0.1% eye drop
Protocol: In this experiment, 0.1% eye drop containing Compound A (prepared in Example 2) and 0.1% eye drop containing Compound C (prepared in Example 5) were used.
Japanese white rabbits (body weight about 2 kg) purchased from Japan Laboratory Animals, INC. were used. These animals were bred in a breeding chamber set to temperature 23±3° C., humidity 55±10% and fed on limited amount of 100 g a day of a solid feed (Labo R Stock, Nihon-Nosan Kogyo K.K.). They were allowed free access to tap water. In the same manner as in Example 4, each test drug was administered. Using laser speckle microcirculation analyzer, the blood flow of optic disc was measured at 30, 60, 90, 120, 150 and 180 min after instillation and thereafter at one hour intervals till 300 min after the instillation.

Japanese white rabbits [4] = experiment: Ophthalmic disorder caused by 8-time-a-day instillation to white rabbits: observation of corneal staining spot; format: in vivo, rabbit; conditions: after 8th administration
Protocol: The test drugs, Compound A and Compound C, were each dissolved in the following base at a concentration of 0.125, 0.25, 0.5 and 1.0% and adjusted to pH 7 for use in this experiment. Japanese white rabbits (body weight about 2 kg) purchased from Japan Laboratory Animals, INC. were used. These animals were bred in a breeding chamber set to temperature 23±3° C., humidity 55±10% and fed on limited amount of 100 g a day of a solid feed (Labo R Stock, Nihon-Nosan Kogyo K.K.). They were allowed free access to tap water. Instillation: Using a micropipet, each test drug (100 μl) was instilled into the right eye of each animal 8 times at one hour intervals. Into the left eye was instilled a base in the same manner. Observation: anterior segment of the eye was macroscopically observed before instillation and 30 min after 2nd, 4th, 6th and 8th administrations, according to the macroscopic criteria for ocular lesions as shown in Table 1 (Naruyuki Fukui, […] no Rinshou 4, 277-289, 1970). In addition, corneal staining spot was observed before instillation and after 8th administration.

| IC50 ([1]; ciliary muscle, added 5 min before carbachol, read-out: IC50 against carbachol contraction) [nM] | observation of corneal staining spot (Japanese white rabbits [4]; any concentration (0.125, 0.25, 0.5 and 1.0%)) | observation of corneal staining spot (Japanese white rabbits [4]; 0.125% instillation) | observation of corneal staining spot (Japanese white rabbits [4]; 0.25% instillation, corneal epithelium) | observation of corneal staining spot (Japanese white rabbits [4]; 0.5% instillation, corneal epithelium) | observation of corneal staining spot (Japanese white rabbits [4]; 1.0% instillation, corneal epithelium) | SMILES | type of antagonism against carbachol contraction ([1]; 10^−6-3×10^−4 M carbachol) | character (onset, duration) of intraocular pressure lowering effect (Japanese white rabbits [2]) | duration of optic disc blood flow increasing effect (Japanese white rabbits [3]) |
| --- | --- | --- | --- | --- | --- | --- | --- | --- | --- |
| 2800 | did not lead to abnormalities |  |  |  |  | CC(N)[C@H]1CC[C@H](C(=O)Nc2ccncc2)CC1.Cl.Cl.O (single isomer, unassigned; (+)) [Compound A, (+)-trans-4-(1-Aminoethyl)-1-(4-pyridylcarbamoyl)cyclohexane 2HCl 1H2O] | non-competitive antagonism | intraocular pressure lowering effect in early stages after instillation | more long-lasting |
|  |  | did not cause particular abnormality | abnormality in two eyes | abnormality in all eyes | abnormality in all eyes | C[C@@H](N)c1ccc(C(=O)Nc2ccncc2)cc1.Cl.Cl [Compound C, (R)-(+)-N-(4-pyridyl)-4-(1-aminoethyl)benzamide 2HCl] |  |  |  |
